In US8987288B2, “Heterocyclic aminoberbamine derivatives, the preparation process and use thereof” (Hangzhou Bensheng Pharmaceutical Co., Ltd., priority 2010, dated 2015):
≈ marks a conversion by molar mass, not a printed value. Read-outs that look alike come from different tables or passages of the source.

Columns and labels:
[1] = test system: Jurkat (acute lymphoblastic leukemia, ALL); test: Leukemia cell growth inhibition, MTT, 72 h; type: cell-based, human
Excerpt: (§1) Leukemia cell lines; human K562 leukemia cell line (chronic myeloid leukemia, CML), K562/adr (drug-resistant chronic myeloid leukemia (CML), NB4 (acute promyelocytic leukemia, AML), Kasumi-1 (acute myeloid leukemia M2 type, AML-M2), Jurkat (acute lymphoblastic leukemia, ALL), H9 (acute lymphoblastic leukemia, ALL). Obtaining 6000 well-growing leukemia cells and inoculating them into wells of a 96-well cell culture plate. The culture medium is the 1640 cell culture medium containing 10% fetal bovine serum. After adding of the berbamine derivatives of different concentrations and mixing uniformly, the plate is placed in a carbon dioxide cell incubator (5% CO2) at 37° C. and incubated for 72 hours. Then the viable cell concentration is determined by the MTT method.

[2] = test system: K562 leukemia cell line (chronic myeloid leukemia, CML); test: Leukemia cell growth inhibition, MTT, 72 h; type: cell-based, human
Excerpt: as §1

[3] = test system: K562/adr (drug-resistant chronic myeloid leukemia); test: Leukemia cell growth inhibition, MTT, 72 h; type: cell-based, human
Excerpt: as §1

[4] = test system: H9 (acute lymphoblastic leukemia, ALL); test: Leukemia cell growth inhibition, MTT, 72 h; type: cell-based; conditions: Homo sapiens, read-out: half inhibiting concentration (IC50 value) H9
Excerpt: as §1

[5] = test system: Kasumi-1 (acute myeloid leukemia M2 type); test: Leukemia cell growth inhibition, MTT, 72 h; type: cell-based; conditions: Homo sapiens, read-out: half inhibiting concentration (IC50 value) Kasumi-1
Excerpt: as §1

[6] = test system: NB4 (acute promyelocytic leukemia, AML); test: Leukemia cell growth inhibition, MTT, 72 h; type: cell-based; conditions: Homo sapiens, read-out: half inhibiting concentration (IC50 value) NB4
Excerpt: as §1

[7] = test system: RPMI 8226 (multiple myeloma); test: Multiple myeloma cell growth inhibition, MTT, 72 h; type: cell-based, human
Method: Multiple myeloma and lymphoma cell lines: RPM18226 (multiple myeloma). Obtaining 6000 well-growing abovesaid tumor cells and inoculating them into wells of a 96-well cell culture plate. The culture medium is the 1640 cell culture medium containing 10% fetal bovine serum. After adding the berbamine derivatives of different concentrations and mixing uniformly, the plate is placed in a carbon dioxide cell incubator (5% CO2) at 37° C. and incubated for 72 hours. Then the viable cell concentration is determined by the MTT method.

[8] = test system: MCF-7 (breast cancer); test: Solid tumor cell growth inhibition, MTT, 72 h; type: cell-based, human
Excerpt: (§2) Human solid tumor cell lines: HepG2 (human hepatocellular carcinoma, HCC), A549 (human lung cancer), MCF-7 (breast cancer), PANC-1 (pancreatic, cancer), PC-3 (prostate cancer). MG63 (osteosarcomas). AGS (gastric cancer), Huh7 (human hepatoma cell), Becap37 (human breast cancer cell), Hela (human cervical cancer cell), RKO (human colon adenocarcinoma cell), SW620 (human colon adenocarcinoma cell), SW480 (human colon cancer cell), MGC 803 (human gastric cancer cell). Obtaining 4000 well-growing human solid tumor cells and inoculating them into wells of a 96-well cell culture plate. The culture medium is DMEM High Glucose cell culture medium containing 10% fetal bovine serum. Alter adding the berbamine derivatives of different concentration and mixing uniformly, the plate is placed in a carbon dioxide cell incubator (5% CO2) at 37° C. and incubated for 72 hours. Then the viable cell concentration is determined by the MTT method, and the cell viability (%) alter drug treatment is calculated. In this experiment, the cell viability of control group (not treated with any compound) is set as 100%.

[9] = test system: MG63 (osteosarcomas); test: Solid tumor cell growth inhibition, MTT, 72 h; type: cell-based, human
Excerpt: as §2

[10] = test system: A549 (human lung cancer); test: Solid tumor cell growth inhibition, MTT, 72 h; type: cell-based
Excerpt: as §2

[11] = test system: AGS (gastric cancer); test: Solid tumor cell growth inhibition, MTT, 72 h; type: cell-based; conditions: Homo sapiens, read-out: half inhibiting concentration (IC50 value) AGS
Excerpt: as §2

[12] = test system: Becap37 (human breast cancer cell); test: Solid tumor cell growth inhibition, MTT, 72 h; type: cell-based; conditions: read-out: half inhibiting concentration (IC50 value) Becap37
Excerpt: as §2

[13] = test system: Hela (human cervical cancer cell); test: Solid tumor cell growth inhibition, MTT, 72 h; type: cell-based; conditions: read-out: half inhibiting concentration (IC50 value) Hela
Excerpt: as §2

[14] = test system: HepG2 (human hepatocellular carcinoma, HCC); test: Solid tumor cell growth inhibition, MTT, 72 h; type: cell-based
Excerpt: as §2

[15] = test system: Huh7 (human hepatoma cell); test: Solid tumor cell growth inhibition, MTT, 72 h; type: cell-based; conditions: Huh-7, read-out: half inhibiting concentration (IC50 value) Huh7
Excerpt: as §2

[16] = test system: MGC 803 (human gastric cancer cell); test: Solid tumor cell growth inhibition, MTT, 72 h; type: cell-based
Excerpt: as §2

[17] = test system: PANC-1 (pancreatic cancer); test: Solid tumor cell growth inhibition, MTT, 72 h; type: cell-based; conditions: Homo sapiens, read-out: half inhibiting concentration (IC50 value) PANC-1
Excerpt: as §2

[18] = test system: PC-3 (prostate cancer); test: Solid tumor cell growth inhibition, MTT, 72 h; type: cell-based; conditions: Homo sapiens, read-out: half inhibiting concentration (IC50 value) PC-3
Excerpt: as §2

[19] = test system: RKO (human colon adenocarcinoma cell); test: Solid tumor cell growth inhibition, MTT, 72 h; type: cell-based; conditions: read-out: half inhibiting concentration (IC50 value) RKO
Excerpt: as §2

[20] = test system: SW480 (human colon cancer cell); test: Solid tumor cell growth inhibition, MTT, 72 h; type: cell-based
Excerpt: as §2

[21] = test system: SW620 (human colon adenocarcinoma cell); test: Solid tumor cell growth inhibition, MTT, 72 h; type: cell-based; conditions: SW-620, read-out: half inhibiting concentration (IC50 value) SW620
Excerpt: as §2

[22] = test system: human leukemia Jurkat cells; conditions: cited from earlier work
[23] = test system: normal human peripheral blood leucocytes; conditions: 0.5 ug/mL to 10 ug/mL; cited from earlier work
[24] = test system: red cell membrane CaM-independent Ca2++Mg2+ ATPase; conditions: stronger than that of berbamine; cited from earlier work
[25] = molecular target: CaM (Homo sapiens, UniProt P0DP23); conditions: higher than that of berbamine; cited from earlier work

COc1cc2c3cc1Oc1c(OC)c(OC)cc4c1[C@@H](Cc1ccc(O)c(c1)Oc1ccc(cc1)C[C@@H]3N(C)CC2)N(C)CC4 [BBM, 6,6′,7-trimethoxy-2,2′-dimethylberbaman-12-ol]
IC50 ([1]; Homo sapiens, Jurkat, 72 hours, MTT, read-out: half inhibiting concentration (IC50 value) Jurkat): 1.9 µg/mL (≈ 3.12 µM) | IC50 ([2]; Homo sapiens, K562, 72 hours, MTT, read-out: half inhibiting concentration (IC50 value) K562): 3 µg/mL (≈ 4.93 µM) | IC50 ([3]; Homo sapiens, K562/Adr, 72 hours, MTT, read-out: half inhibiting concentration (IC50 value) K562adr): 3.53 µg/mL (≈ 5.8 µM) | IC50 [4]: 5.04 µg/mL (≈ 8.28 µM) | IC50 [5]: 1.3 µg/mL (≈ 2.14 µM) | IC50 [6]: 3 µg/mL (≈ 4.93 µM) | IC50 ([7]; Homo sapiens, RPMI-8226, 72 hours, MTT, read-out: half inhibiting concentration (IC50 value) RPMI 8226): 1.17 µg/mL (≈ 1.92 µM) | IC50 ([8]; Homo sapiens, MCF7, 72 hours, MTT, read-out: half inhibiting concentration (IC50 value) MCF-7): 20.6 µg/mL (≈ 33.8 µM) | IC50 ([9]; Homo sapiens, MG-63, 72 hours, MTT, read-out: half inhibiting concentration (IC50 value) MG63): 9.18 µg/mL (≈ 15.1 µM) | IC50 ([10]; Homo sapiens, A549, 72 hours, MTT, read-out: half inhibiting concentration (IC50 value) A549): 5.38 µg/mL (≈ 8.84 µM) | IC50 [11]: 5.84 µg/mL (≈ 9.59 µM) | IC50 [12]: 7.31 µg/mL (≈ 12 µM) | IC50 [13]: 5.04 µg/mL (≈ 8.28 µM) | IC50 ([14]; Homo sapiens, HepG2, 72 hours, MTT, read-out: half inhibiting concentration (IC50 value) Hepg2): 6.67 µg/mL (≈ 11 µM) | IC50 [15]: 7.63 µg/mL (≈ 12.5 µM) | IC50 ([16]; Homo sapiens, MGC-803, 72 hours, MTT, read-out: half inhibiting concentration (IC50 value) MGC803): 4.96 µg/mL (≈ 8.15 µM) | IC50 [17]: 12.7 µg/mL (≈ 20.9 µM) | IC50 [18]: 3.7 µg/mL (≈ 6.08 µM) | IC50 [19]: 2.34 µg/mL (≈ 3.84 µM) | IC50 ([20]; Homo sapiens, SW480, 72 hours, MTT, read-out: half inhibiting concentration (IC50 value) SW480): 5.74 µg/mL (≈ 9.43 µM) | IC50 [21]: 1.1 µg/mL (≈ 1.81 µM) | cell viability rate ([22]; drug concentration 0.5 ug/mL): 93.69% | cell viability rate ([22]; drug concentration 10 ug/mL): 14.85% | cytotoxicity on normal human peripheral blood leucocytes [23]: no obvious cytotoxicity

COc1cccc(NC(=O)c2ccc(NCCCOc3ccc4cc3Oc3ccc(cc3)CC3c5cc(c(OC)cc5CCN3C)Oc3c(OC)c(OC)cc5c3C(C4)N(C)CC5)nc2)c1 (stereo not drawn) [Compound (6), 12-O-(3-(5-(3-methoxy-phenyl-carbamoyl)-pyridin-2-amino)-propyl)-berbamine]
improvement of anti-A549 (human lung cancer) cell activity compared with berbamine ([10]; vs berbamine): more than 14 fold

O-Dansyl berbamine [DB]
inhibitory activity on red cell membrane CaM-independent Ca2++Mg2+ ATPase relative to berbamine [24]: 25 times

CCOCCCCOc1ccc2cc1Oc1ccc(cc1)C[C@H]1c3cc(c(OC)cc3CCN1C)Oc1c(OC)c(OC)cc3c1[C@@H](C2)N(C)CC3 [EBB, [O-(4-ethoxy)-butyl]-berbamine]
specific coefficient as CaM antagonist relative to berbamine [25]: 6.5 times

COc1cc2c3cc1Oc1c(OC)c(OC)cc4c1C(Cc1ccc(OCCCNc5ncc(C(=O)Nc6c(C)cccc6Cl)s5)c(c1)Oc1ccc(cc1)CC3N(C)CC2)N(C)CC4 (stereo not drawn) [Compound (2), 12-O-(3-(5-(2-chloro-6-methyl-phenyl-carbamoyl)-thiazol-2-amino)-propyl)-berbamine]
improvement of anti-MG63 (osteosarcoma) cell activity compared with berbamine ([9]; vs berbamine): more than 12 fold

COc1cccc(NC(=O)c2sc(NCCCOc3ccc4cc3Oc3ccc(cc3)CC3c5cc(c(OC)cc5CCN3C)Oc3c(OC)c(OC)cc5c3C(C4)N(C)CC5)nc2C)c1 (stereo not drawn) [Compound (3), 12-O-(3-(5-(3-methoxy-phenyl-carbamoyl)-4-methyl-thiazol-2-amino)-propyl)-Berbamine]
improvement of anti-K562 activity compared with berbamine ([2]; vs berbamine): 8 fold | improvement of anti-K562 activity compared with berbamine (second mention, K562/adr meant) ([3]; vs berbamine): 8 fold

COc1cccc(NC(=O)c2cnc(NCCCOc3ccc4cc3Oc3ccc(cc3)CC3c5cc(c(OC)cc5CCN3C)Oc3c(OC)c(OC)cc5c3C(C4)N(C)CC5)cn2)c1 (stereo not drawn) [Compound (4), 12-O-(3-(5-(3-methoxy-phenyl-carbamoyl)-pyrazin-2-amino)-propyl)-berbamine]
improvement of anti-Jurkat acute lymphoblastic leukemia activity compared with berbamine ([1]; vs berbamine): more than 13 fold | improvement of anti-RPMI8226 (multiple myeloma) cell line activity compared with berbamine ([7]; vs berbamine): more than 117 fold | improvement of anti-MCP-7 (breast cancer) cell activity compared with berbamine ([8]; vs berbamine): more than 26 fold | improvement of anti-HepG2 cell activity compared with berbamine ([14]; vs berbamine): about 9 fold | improvement of anti-MGC 803 cell activity compared with berbamine ([16]; vs berbamine): more than 8 fold | improvement of anti-SW480 cell activity compared with berbamine ([20]; vs berbamine): more than 6 fold
